Several values for one entry are separate records, joined by “and”; a condition that tells them apart may be missing. Identical values can stand only once.
Assay: excess molar enthalpy (molar enthalpy of mixing); xn = mol fraction of the nth substance listed
Conditions: Liquid, Flow calorimetry

CCO [ethanol] + O
Conditions	excess molar enthalpy [kJ/mol]
333.15 K, 1824 kPa, x1 = 0.0079	-0.0399
333.15 K, 1824 kPa, x1 = 0.016	-0.0795
333.15 K, 1824 kPa, x1 = 0.0333	-0.155
333.15 K, 1824 kPa, x1 = 0.0519	-0.217
333.15 K, 1824 kPa, x1 = 0.0719	-0.266
333.15 K, 1824 kPa, x1 = 0.0936	-0.297
333.15 K, 1824 kPa, x1 = 0.1172	-0.308
333.15 K, 1824 kPa, x1 = 0.143	-0.306
333.15 K, 1824 kPa, x1 = 0.1712	-0.288
333.15 K, 1824 kPa, x1 = 0.2023	-0.259
333.15 K, 1824 kPa, x1 = 0.2366	-0.231
333.15 K, 1824 kPa, x1 = 0.2747	-0.19
333.15 K, 1824 kPa, x1 = 0.3173	-0.147
333.15 K, 1824 kPa, x1 = 0.3653	-0.101
333.15 K, 1824 kPa, x1 = 0.4196	-0.0523
333.15 K, 1824 kPa, x1 = 0.4818	-0.0073
333.15 K, 1824 kPa, x1 = 0.5535	0.0274
333.15 K, 1824 kPa, x1 = 0.6372	0.0418
333.15 K, 1824 kPa, x1 = 0.7361	0.0312
333.15 K, 1824 kPa, x1 = 0.8548	0.0006
333.15 K, 1824 kPa, x1 = 0.9236	-0.0155
333.15 K, 1824 kPa, x1 = 0.9608	-0.0121
363.15 K, 1203 kPa, x1 = 0.0079	-0.0112
363.15 K, 1203 kPa, x1 = 0.016	-0.0235
363.15 K, 1203 kPa, x1 = 0.0333	-0.0465
363.15 K, 1203 kPa, x1 = 0.0518	-0.0592
363.15 K, 1203 kPa, x1 = 0.0719	-0.0586
363.15 K, 1203 kPa, x1 = 0.0936	-0.0453
363.15 K, 1203 kPa, x1 = 0.1172	-0.0202
363.15 K, 1203 kPa, x1 = 0.143	0.0157
363.15 K, 1203 kPa, x1 = 0.1712	0.0549
363.15 K, 1203 kPa, x1 = 0.2022	0.0991
363.15 K, 1203 kPa, x1 = 0.2365	0.144
363.15 K, 1203 kPa, x1 = 0.2746	0.191
363.15 K, 1203 kPa, x1 = 0.3173	0.241
363.15 K, 1203 kPa, x1 = 0.3652	0.288
363.15 K, 1203 kPa, x1 = 0.4196	0.332
363.15 K, 1203 kPa, x1 = 0.4817	0.359
363.15 K, 1203 kPa, x1 = 0.5534	0.366
363.15 K, 1203 kPa, x1 = 0.6371	0.34
363.15 K, 1203 kPa, x1 = 0.736	0.268
363.15 K, 1203 kPa, x1 = 0.8548	0.147
363.15 K, 1203 kPa, x1 = 0.9236	0.0752
383.15 K, 1500 kPa, x1 = 0.0333	0.012
383.15 K, 1500 kPa, x1 = 0.0719	0.0617
383.15 K, 1500 kPa, x1 = 0.1172	0.142
383.15 K, 1500 kPa, x1 = 0.1712	0.246
383.15 K, 1500 kPa, x1 = 0.2365	0.359
383.15 K, 1500 kPa, x1 = 0.3173	0.469
383.15 K, 1500 kPa, x1 = 0.4196	0.554
383.15 K, 1500 kPa, x1 = 0.5534	0.579
383.15 K, 1500 kPa, x1 = 0.6371	0.544
383.15 K, 1500 kPa, x1 = 0.736	0.445
383.15 K, 1500 kPa, x1 = 0.7926	0.371
383.15 K, 1500 kPa, x1 = 0.8548	0.27
383.15 K, 1500 kPa, x1 = 0.9236	0.146

CC(=O)O [acetic acid] + CCO
323.15 K, 1548 kPa
Conditions	excess molar enthalpy [kJ/mol]
x1 = 0.0247	0.0451
x1 = 0.0493	0.0844
x1 = 0.0987	0.145
x1 = 0.1729	0.196
x1 = 0.2473	0.215
x1 = 0.3467	0.212
x1 = 0.4464	0.182
x1 = 0.5464	0.148
x1 = 0.6467	0.111
x1 = 0.7473	0.0803
x1 = 0.8229	0.0608
x1 = 0.8987	0.0389
x1 = 0.9493	0.0211
x1 = 0.9746	0.0117

CCOC(C)=O [ethyl acetate] + CCO
Conditions	excess molar enthalpy [kJ/mol]
363.15 K, 1548 kPa, x1 = 0.0151	0.0973
363.15 K, 1548 kPa, x1 = 0.0305	0.198
363.15 K, 1548 kPa, x1 = 0.0624	0.392
363.15 K, 1548 kPa, x1 = 0.0956	0.578
363.15 K, 1548 kPa, x1 = 0.1302	0.757
363.15 K, 1548 kPa, x1 = 0.1664	0.926
363.15 K, 1548 kPa, x1 = 0.2042	1.083
363.15 K, 1548 kPa, x1 = 0.2438	1.228
363.15 K, 1548 kPa, x1 = 0.2853	1.374
363.15 K, 1548 kPa, x1 = 0.3288	1.489
363.15 K, 1548 kPa, x1 = 0.3745	1.582
363.15 K, 1548 kPa, x1 = 0.4226	1.667
363.15 K, 1548 kPa, x1 = 0.4732	1.717
363.15 K, 1548 kPa, x1 = 0.5265	1.71
363.15 K, 1548 kPa, x1 = 0.5828	1.69
363.15 K, 1548 kPa, x1 = 0.6424	1.618
363.15 K, 1548 kPa, x1 = 0.7054	1.486
363.15 K, 1548 kPa, x1 = 0.7724	1.276
363.15 K, 1548 kPa, x1 = 0.8435	0.972
363.15 K, 1548 kPa, x1 = 0.9192	0.555
363.15 K, 1548 kPa, x1 = 0.9589	0.292
413.15 K, 1307 kPa, x1 = 0.0151	0.108
413.15 K, 1307 kPa, x1 = 0.0306	0.222
413.15 K, 1307 kPa, x1 = 0.0624	0.439
413.15 K, 1307 kPa, x1 = 0.0956	0.646
413.15 K, 1307 kPa, x1 = 0.1302	0.841
413.15 K, 1307 kPa, x1 = 0.1664	1.028
413.15 K, 1307 kPa, x1 = 0.2042	1.198
413.15 K, 1307 kPa, x1 = 0.2438	1.36
413.15 K, 1307 kPa, x1 = 0.2853	1.502
413.15 K, 1307 kPa, x1 = 0.3288	1.623
413.15 K, 1307 kPa, x1 = 0.3745	1.725
413.15 K, 1307 kPa, x1 = 0.4226	1.773
413.15 K, 1307 kPa, x1 = 0.4732	1.815
413.15 K, 1307 kPa, x1 = 0.5265	1.812
413.15 K, 1307 kPa, x1 = 0.5829	1.765
413.15 K, 1307 kPa, x1 = 0.6424	1.663
413.15 K, 1307 kPa, x1 = 0.7055	1.502
413.15 K, 1307 kPa, x1 = 0.7724	1.261
413.15 K, 1307 kPa, x1 = 0.8435	0.939
413.15 K, 1307 kPa, x1 = 0.9192	0.524
413.15 K, 1307 kPa, x1 = 0.9589	0.276

CCOC(C)=O [ethyl acetate] + O
353.15 K, 1272 kPa
Conditions	excess molar enthalpy
x1 = 0.0096	0.0209 kJ/mol
x1 = 0.0201	0.0446 kJ/mol
x1 = 0.0441	0.0917 kJ/mol
x1 = 0.058	0.119 kJ/mol
x1 = 0.0733	0.149 kJ/mol
x1 = 0.0905	0.182 kJ/mol and 0.183 kJ/mol
x1 = 0.1096	0.22 kJ/mol
x1 = 0.1313	0.264 kJ/mol
x1 = 0.1559	0.311 kJ/mol
x1 = 0.1842	0.364 kJ/mol
x1 = 0.2169	0.43 kJ/mol
x1 = 0.2554	0.505 kJ/mol
x1 = 0.3012	0.594 kJ/mol
x1 = 0.3565	0.704 kJ/mol
x1 = 0.4249	0.838 kJ/mol
x1 = 0.5114	1 kJ/mol
x1 = 0.5639	1.1 kJ/mol
x1 = 0.6244	1.23 kJ/mol
x1 = 0.6949	1.36 kJ/mol
x1 = 0.8258	1.2 kJ/mol
x1 = 0.8781	0.94 kJ/mol
x1 = 0.9359	0.592 kJ/mol

CC(=O)O [acetic acid] + CCOC(C)=O
323.15 K, 1548 kPa
Conditions	excess molar enthalpy [kJ/mol]
x2 = 0.0148	-0.0074
x2 = 0.03	-0.0148
x2 = 0.0613	-0.0266
x2 = 0.1108	-0.0387
x2 = 0.1637	-0.0437
x2 = 0.2403	-0.0394
x2 = 0.3246	-0.0264
x2 = 0.4179	-0.0055
x2 = 0.5217	0.0219
x2 = 0.6379	0.0539
x2 = 0.7347	0.073
x2 = 0.8409	0.0786
x2 = 0.9178	0.0638
x2 = 0.9582	0.044

— the NIST ThermoML archive (doi:10.1016/j.fluid.2014.05.031)
